Measurements reported in patent US7723523B2, “Tetrahydropyridothiophenes” (4SC AG, priority 2004, dated 2010).

How the values were obtained:
[1] = test system: RKO colon adenocarcinoma cells (RKOp27) arrested by expression of ectopic p27Kip1; test: Alamar Blue cell viability assay on RKOp27 cells arrested by Ponasterone A-induced p27Kip1 (cell cycle specific mode of action); type: cell-based; settings: Homo sapiens, RKOp27, 72 h, cells arrested by p27Kip1 induced with 10 μM Ponasterone A, 72 hours incubation, read-out: IC50 RKO p27 arrested
Procedure, shortened: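 Viability measured by Alamar Blue fluorescence (ex 544, em 590 nm) after 72 h, 37 °C compound exposure in quadruplicate, normalized to untreated cells as 100%. Cells were p27Kip1-arrested RKOp27, induced with 10 μM Ponasterone A at seeding; compound added 24 h later.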

[2] = test system: RKO (RKOp27) human colon adenocarcinoma cells; test: Alamar Blue cell viability assay, anti-proliferative/cytotoxic activity on proliferating RKOp27 cells; type: cell-based; settings: absence of Ponasterone A, 72 hours incubation, read-out: IC50 RKO p27 proliferating
Procedure, shortened: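 IC50 values come from concentration-effect curves of Alamar Blue fluorescence (544/590 nm), relative to untreated controls set at 100%. Cells were RKOp27, seeded at 4000/well in DMEM with 10% FCS and exposed from 24 h post-seeding for 72 h (37 °C, 5% CO2) to semi-log dilutions, each run in quadruplicate.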

| IC50 [1] | Compound | IC50 [2] |
| --- | --- | --- |
| ≥ 100 µM | COc1ccccc1/C=C/C(=O)Nc1sc2c(c1C#N)CCN(C(=O)CCc1cccnc1)C2 [Example 206, (E)-N-[3-Cyano-6-(3-pyridin-3-yl-propanoyl)-4,5,6,7-tetrahydro-thieno[2,3-c]pyridin-2-yl]-3-(2-methoxy-phenyl)-acrylamide] | ≤ 2 µM |
| ≥ 100 µM | N#Cc1c(NC(=O)/C=C/c2ccccc2Cl)sc2c1CCN(C(=O)Cc1ccncc1)C2 [Example 214, (E)-3-(2-Chloro-phenyl)-N-[3-cyano-6-(2-pyridin-4-yl-ethanoyl)-4,5,6,7-tetrahydro-thieno[2,3-c]pyridin-2-yl]-acrylamide] | ≤ 2 µM |
| ≥ 100 µM | N#Cc1c(NC(=O)/C=C/c2ccccc2Cl)sc2c1CCN(C(=O)CCc1cccnc1)C2 [Example 215, (E)-3-(2-Chloro-phenyl)-N-[3-cyano-6-(3-pyridin-3-yl-propanoyl)-4,5,6,7-tetrahydro-thieno[2,3-c]pyridin-2-yl]-acrylamide] | ≤ 2 µM |
| ≥ 100 µM | CCOc1ccccc1/C=C/C(=O)Nc1sc2c(c1C#N)CCN(C(=O)Cc1ccccn1)C2 [Example 218, (E)-N-[3-Cyano-6-(2-pyridin-2-yl-ethanoyl)-4,5,6,7-tetrahydro-thieno[2,3-c]pyridin-2-yl]-3-(2-ethoxy-phenyl)-acrylamide] | ≤ 2 µM |
| ≥ 100 µM | CCOc1ccccc1/C=C/C(=O)Nc1sc2c(c1C#N)CCN(C(=O)Cc1cccnc1)C2 [Example 219, (E)-N-[3-Cyano-6-(2-pyridin-3-yl-ethanoyl)-4,5,6,7-tetrahydro-thieno[2,3-c]pyridin-2-yl]-3-(2-ethoxy-phenyl)-acrylamide] | ≤ 2 µM |
| ≥ 50 µM | CCOc1ccccc1/C=C/C(=O)Nc1sc2c(c1C#N)CCN(C(=O)CCc1cccnc1)C2 [Example 220, (E)-N-[3-Cyano-6-(3-pyridin-3-yl-propanoyl)-4,5,6,7-tetrahydro-thieno[2,3-c]pyridin-2-yl]-3-(2-ethoxy-phenyl)-acrylamide] | ≤ 0.5 µM |
| ≥ 100 µM | CCOc1ccccc1/C=C/C(=O)Nc1sc2c(c1C#N)CCN(C(=O)CCn1ccnc1)C2 [Example 224, (E)-N-[3-Cyano-6-(3-imidazol-1-yl-propanoyl)-4,5,6,7-tetrahydro-thieno[2,3-c]pyridin-2-yl]-3-(2-ethoxy-phenyl)-acrylamide] | ≤ 2 µM |
| ≥ 100 µM | COCCOCC(=O)N1CCc2c(sc(NC(=O)/C=C/c3ccco3)c2C#N)C1 [Example 226, (E)-N-{3-Cyano-6-[2-(2-methoxy-ethoxy)ethanoyl]-4,5,6,7-tetrahydro-thieno[2,3-c]pyridin-2-yl}-3-furan-2-yl-acrylamide] | ≤ 2 µM |
| ≥ 100 µM | N#Cc1c(NC(=O)/C=C/c2ccco2)sc2c1CCN(C(=O)Cc1cccnc1)C2 [Example 228, (E)-N-[3-Cyano-6-(2-pyridin-3-yl-ethanoyl)-4,5,6,7-tetrahydro-thieno[2,3-c]pyridin-2-yl]-3-furan-2-yl-acrylamide] | ≤ 2 µM |
| ≥ 100 µM | CCOC(=O)N1CCc2c(sc(NC(=O)/C=C/c3ccc4c(c3Br)OCO4)c2C#N)C1 [Example 232, 2-[(E)-3-(4-Bromo-benzo[1,3]dioxol-5-yl)-allanoylamino]-3-cyano-4,7-dihydro-5H-thieno[2,3-c]pyridine-6-carboxylic acid ethyl ester] | ≤ 2 µM |
| ≥ 100 µM | CCOC(=O)N1CCc2c(sc(NC(=O)/C=C/c3cccc4c3OCC4)c2C#N)C1 [Example 234, 3-Cyano-2-((E)-3-2,3-dihydro-benzofuran-7-yl-allanoylamino)-4,7-dihydro-5H-thieno[2,3-c]pyridine-6-carboxylic acid ethyl ester] | ≤ 2 µM |

Second part, the compound before the results:

| Compound | IC50 [1] | IC50 [2] |
| --- | --- | --- |
| COCCOCC(=O)N1CCc2c(sc(NC(=O)/C=C/c3ccccc3OC)c2C#N)C1 [Example 209, (E)-N-{3-Cyano-6-[2-(2-methoxy-ethoxy)-ethanoyl]-4,5,6,7-tetrahydro-thieno[2,3-c]pyridin-2-yl}-3-(2-methoxy-phenyl)-acrylamide] | ≥ 100 µM | ≤ 2 µM |
| COCC(=O)N1CCc2c(sc(NC(=O)/C=C/c3ccccc3OC)c2C#N)C1 [Example 210, (E)-N-[3-Cyano-6-(2-methoxy-ethanoyl)-4,5,6,7-tetrahydro-thieno[2,3-c]pyridin-2-yl]-3-(2-methoxy-phenyl)-acrylamide] | ≥ 100 µM | ≤ 2 µM |
| COCCC(=O)N1CCc2c(sc(NC(=O)/C=C/c3ccccc3OC)c2C#N)C1 [Example 211, (E)-N-[3-Cyano-6-(3-methoxy-propanoyl)-4,5,6,7-tetrahydro-thieno[2,3-c]pyridin-2-yl]-3-(2-methoxy-phenyl)-acrylamide] | ≥ 100 µM | ≤ 2 µM |
| N#Cc1c(NC(=O)/C=C/c2ccccc2Cl)sc2c1CCN(C(=O)Cc1ccccn1)C2 [Example 212, (E)-3-(2-Chloro-phenyl)-N-[3-cyano-6-(2-pyridin-2-yl-ethanoyl)-4,5,6,7-tetrahydro-thieno[2,3-c]pyridin-2-yl]-acrylamide] | ≥ 100 µM | ≤ 2 µM |
| CCOc1ccccc1/C=C/C(=O)Nc1sc2c(c1C#N)CCN(C(=O)CCOC)C2 [Example 216, (E)-N-[3-Cyano-6-(3-methoxy-propanoyl)-4,5,6,7-tetrahydro-thieno[2,3-c]pyridin-2-yl]-3-(2-ethoxy-phenyl)-acrylamide] | ≥ 100 µM | ≤ 2 µM |
| CCOc1ccccc1/C=C/C(=O)Nc1sc2c(c1C#N)CCN(C(=O)COCCOC)C2 [Example 217, (E)-N-{3-Cyano-6-[2-(2-methoxy-ethoxy)-ethanoyl]-4,5,6,7-tetrahydro-thieno[2,3-c]pyridin-2-yl}-3-(2-ethoxy-phenyl)-acrylamide] | ≥ 100 µM | ≤ 2 µM |
| CCOc1ccccc1/C=C/C(=O)Nc1sc2c(c1C#N)CCN(C(=O)CCc1ccccc1)C2 [Example 221, (E)-N-[3-Cyano-6-(3-phenyl-propanoyl)-4,5,6,7-tetrahydro-thieno[2,3-c]pyridin-2-yl]-3-(2-ethoxy-phenyl)-acrylamide] | ≥ 100 µM | ≤ 2 µM |
| CCOc1ccccc1/C=C/C(=O)Nc1sc2c(c1C#N)CCN(C(=O)CCc1ccccn1)C2 [Example 222, (E)-N-[3-Cyano-6-(3-pyridin-2-yl-propanoyl)-4,5,6,7-tetrahydro-thieno[2,3-c]pyridin-2-yl]-3-(2-ethoxy-phenyl)-acrylamide] | ≥ 50 µM | ≤ 0.5 µM |
| CCOc1ccccc1/C=C/C(=O)Nc1sc2c(c1C#N)CCN(C(=O)COC)C2 [Example 223, (E)-N-[3-Cyano-6-(2-methoxy-ethanoyl)-4,5,6,7-tetrahydro-thieno[2,3-c]pyridin-2-yl]-3-(2-ethoxy-phenyl)-acrylamide] | ≥ 100 µM | ≤ 2 µM |
| N#Cc1c(NC(=O)/C=C/c2ccco2)sc2c1CCN(C(=O)Cc1ccccn1)C2 [Example 227, (E)-N-[3-Cyano-6-(2-pyridin-2-yl-ethanoyl)-4,5,6,7-tetrahydro-thieno[2,3-c]pyridin-2-yl]-3-furan-2-yl-acrylamide] | ≥ 100 µM | ≤ 2 µM |
| N#Cc1c(NC(=O)/C=C/c2ccco2)sc2c1CCN(C(=O)CCc1cccnc1)C2 [Example 229, (E)-N-[3-Cyano-6-(3-pyridin-3-yl-propanoyl)-4,5,6,7-tetrahydro-thieno[2,3-c]pyridin-2-yl]-3-furan-2-yl-acrylamide] | ≥ 100 µM | ≤ 2 µM |
| CCOC(=O)N1CCc2c(sc(NC(=O)/C=C/c3cccc4c3OC(F)(F)O4)c2C#N)C1 [Example 230, 3-Cyano-2-[(E)-3-(2,2-difluoro-benzo[1,3]dioxol-4-yl)-allanoylamino]-4,7-dihydro-5H-thieno[2,3-c]pyridine-6-carboxylic acid ethyl ester] | ≥ 100 µM | ≤ 2 µM |
| CCOC(=O)N1CCc2c(sc(NC(=O)/C=C/c3ccccc3OC(F)F)c2C#N)C1 [Example 231, 3-Cyano-2{(E), 3-[2-(1,1-difluoro-methoxy)-phenyl]-allanoylamino}-4,7-dihydro-5H-thieno[2,3-c]pyridine-6-carboxylic acid ethyl ester] | ≥ 100 µM | ≤ 2 µM |
| CCOC(=O)N1CCc2c(sc(NC(=O)/C=C/c3ccccc3OC(F)(F)F)c2C#N)C1 [Example 233, 3-Cyano-2-[(E)-3-(2-trifluoromethoxy-phenyl)-allanoylamino]-4,7-dihydro-5H-thieno[2,3-c]pyridine-6-carboxylic acid ethyl ester] | ≥ 50 µM | ≤ 0.5 µM |
| CCOc1ccccc1/C=C/C(=O)Nc1sc2c(c1C#N)CCN(C(=O)OCCOC)C2 [Example 235, 3-Cyano-2-[(E)-3-(2-ethoxy-phenyl)-allanoylamino]-4,7-dihydro-5H-thieno[2,3-c]pyridine-6-carboxylic acid 2-methoxy-ethyl ester] | ≥ 100 µM | ≤ 2 µM |
| CCOc1ccccc1/C=C/C(=O)Nc1sc2c(c1C#N)CCN(C(=O)OCc1ccccn1)C2 [Example 236, 3-Cyano-2-[(E)-3-(2-ethoxy-phenyl)-allanoylamino]-4,7-dihydro-5H-thieno[2,3-c]pyridin-6-carboxylic acid pyridin-2-ylmethyl ester] | ≥ 100 µM | ≤ 2 µM |
| CCOc1ccccc1/C=C/C(=O)Nc1sc2c(c1C#N)CCN(C(=O)OCc1cccnc1)C2 [Example 237, 3-Cyano-2-[(E)-3-(2-ethoxy-phenyl)-allanoylamino]-4,7-dihydro-5H-thieno[2,3-c]pyridine-6-carboxylic acid pyridin-3-ylmethyl ester] | ≥ 100 µM | ≤ 2 µM |
